According to PubChem BioAssay (NCI):
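48-hour exposure; five concentrations; linearly interpolated endpoints. GI50 is the concentration that inhibits growth by half. TGI marks complete inhibition of growth.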

Tests used:
Assay in all cases: NCI tumour cell line growth inhibition, 48 h
[1] = test system: LOX IMVI melanoma
[2] = test system: NCI/ADR-RES ovarian
[3] = test system: SNB-75 CNS
[4] = test system: OVCAR-5 ovarian
[5] = test system: T-47D breast
[6] = test system: SF-268 CNS
[7] = test system: CAKI-1 renal
[8] = test system: UACC-62 melanoma

Molecule `Cc1cc(S(=O)(=O)Nc2nc3cc(-c4ccc(Cl)cc4)sc3c(=O)n2N)c(S)cc1Cl` has a TGI [1] greater than 100 µM, a TGI [2] greater than 100 µM and a TGI [3] greater than 100 µM. For the same molecule, the TGI [4] was greater than 100 µM, the TGI [5] was greater than 100 µM and the TGI [6] was greater than 100 µM. For the same molecule, the TGI [7] was greater than 100 µM and the TGI [8] was greater than 100 µM.
`CCC(=O)ONC(=O)Cn1ccc([N+](=O)[O-])n1` gave a TGI [1] greater than 100 µM, a TGI [2] greater than 100 µM and a TGI [3] greater than 100 µM. It also gave a TGI [4] greater than 100 µM, a TGI [6] greater than 100 µM and a TGI [7] greater than 100 µM. It also gave a TGI [8] greater than 100 µM.
`C[N+]12CCCCC1C(CN1C(=O)Cc3c4ccccc4c(c4ccccc34)CC1=O)CCC2` (stereo not given) showed a TGI [1] greater than 100 µM, a TGI [2] greater than 100 µM and a TGI [3] greater than 100 µM. It also gave a TGI [4] greater than 100 µM, a TGI [5] greater than 100 µM and a TGI [6] greater than 100 µM. It also gave a TGI [7] greater than 100 µM and a TGI [8] greater than 100 µM.
Work on `CCOC(=O)NC(Nc1ccc([N+](=O)[O-])cc1)(C(F)(F)F)C(F)(F)F` yielded a TGI [1] greater than 100 µM, a TGI [2] greater than 100 µM and a TGI [3] greater than 100 µM. It also gave a TGI [4] greater than 100 µM, a TGI [5] greater than 100 µM and a TGI [6] greater than 100 µM. It also gave a TGI [7] greater than 100 µM and a TGI [8] greater than 100 µM.
Work on `NC(CCC(=O)NC(CSCC1C(=O)Nc2ccccc21)C(=O)NCC(=O)O)C(=O)O` (stereo not given) yielded a TGI [1] of 2.78 µM, a TGI [2] of 19.7 µM and a TGI [3] of 8.2 µM. It also gave a TGI [4] of 31.1 µM, a TGI [5] greater than 23.3 µM and a TGI [6] of 15.5 µM. The TGI [7] was 9.95 µM and the TGI [8] was 23.6 µM.
`CC(C(O)Cc1ccccc1)N(C)N=Nc1ccc([N+](=O)[O-])cc1` (stereo not given) showed a TGI [2] of 39.9 µM, a TGI [3] greater than 100 µM and a TGI [4] of 76.1 µM. For the same molecule, the TGI [5] was 74.5 µM, the TGI [6] was 47.3 µM and the TGI [7] was 51.8 µM. The TGI [8] was 37.6 µM.
`Oc1cccc(-c2nc3cc(F)ccc3s2)c1` showed a TGI [1] of 34.7 µM, a TGI [2] of 54.3 µM and a TGI [3] of 39.4 µM. It also gave a TGI [4] of 52.9 µM, a TGI [5] of 14.2 µM and a TGI [6] of 65.6 µM. For the same molecule, the TGI [7] was 35.2 µM and the TGI [8] was 35.1 µM.
Molecule `CC(=O)NC1c2ccccc2C(C)(C)C12CCC1(CC2)OCCO1` (stereo not given) has a TGI [1] greater than 100 µM, a TGI [2] greater than 100 µM and a TGI [3] greater than 100 µM. For the same molecule, the TGI [4] was greater than 100 µM, the TGI [5] was greater than 100 µM and the TGI [6] was greater than 100 µM. It also gave a TGI [7] greater than 100 µM and a TGI [8] greater than 100 µM.
`COc1nc2nccnc2c(=O)n1C` gave a TGI [1] greater than 10 µM, a TGI [2] greater than 10 µM and a TGI [3] greater than 10 µM. It also gave a TGI [4] greater than 10 µM, a TGI [5] greater than 10 µM and a TGI [6] greater than 10 µM. It also gave a TGI [7] greater than 10 µM and a TGI [8] greater than 10 µM.
For `CSc1cnc2ccccc2c1SC1CN(Cc2ccccc2)c2ccccc2C1=O` (stereo not given), the TGI [1] was greater than 100 µM, the TGI [2] was greater than 100 µM and the TGI [3] was greater than 100 µM. For the same molecule, the TGI [4] was greater than 100 µM, the TGI [5] was greater than 100 µM and the TGI [6] was greater than 100 µM. The TGI [7] was greater than 100 µM and the TGI [8] was greater than 100 µM.
For `CCN1CCC(O)(/C=C/c2ccc(C)cc2C)C(C(=O)/C=C/c2ccc(C)cc2C)C1` (stereo not given), the TGI [1] was 3.71 µM, the TGI [2] was 7.31 µM and the TGI [3] was 36.6 µM. For the same molecule, the TGI [4] was 14.7 µM, the TGI [5] was 8.01 µM and the TGI [6] was 9.12 µM. The TGI [7] was 9.85 µM and the TGI [8] was 11 µM.
`CC1=C(CO)C(=O)O[C@@H]([C@@H](CO)[C@H]2CCC3C4C[C@@H](O)[C@@]5(O)CC=CC(=O)[C@]5(C)C4CC[C@@]32C)C1` (stereo not given in full) showed a TGI [1] greater than 100 µM, a TGI [2] greater than 100 µM and a TGI [3] greater than 100 µM. It also gave a TGI [4] greater than 100 µM, a TGI [5] greater than 100 µM and a TGI [6] greater than 100 µM. It also gave a TGI [7] greater than 100 µM and a TGI [8] greater than 100 µM.
`O=C1/C(=C/c2ccc(Cl)cc2)CSc2ccccc21` was tested, and the TGI [1] was 6.21 µM, the TGI [2] was 34.5 µM and the TGI [3] was 72.7 µM. For the same molecule, the TGI [5] was 58.3 µM, the TGI [6] was 73 µM and the TGI [7] was 46.7 µM. It also gave a TGI [8] of 14.6 µM.
`COc1ccc2cc(C(C)C(=O)N3CCOC3=O)ccc2c1` (stereo not given) was tested, and the TGI [1] was greater than 100 µM, the TGI [2] was greater than 100 µM and the TGI [3] was greater than 100 µM. For the same molecule, the TGI [4] was greater than 100 µM, the TGI [5] was greater than 100 µM and the TGI [6] was greater than 100 µM. The TGI [7] was greater than 100 µM and the TGI [8] was greater than 100 µM.
`C=CCOc1ccc(C2(O)c3ccccc3C3=NCCCN32)cc1` (stereo not given) was tested, and the TGI [1] was greater than 100 µM, the TGI [2] was greater than 100 µM and the TGI [3] was greater than 100 µM. The TGI [4] was greater than 100 µM, the TGI [5] was greater than 74.6 µM and the TGI [6] was greater than 100 µM. The TGI [7] was greater than 100 µM and the TGI [8] was greater than 57 µM.
`N#CC1=C(N)N(c2ccccc2)C(c2ccccc2)C1(C#N)C#N` (stereo not given) showed a TGI [1] of 30.3 µM, a TGI [2] of 45.3 µM and a TGI [3] of 42 µM. It also gave a TGI [4] of 37.3 µM, a TGI [5] of 24.4 µM and a TGI [6] of 55.4 µM. The TGI [7] was greater than 100 µM and the TGI [8] was 45.7 µM.
For `COC(=O)C1=C(C)NC(C)=C(C(=O)OC)C1c1nc2sccn2c1[N+](=O)[O-]`, the TGI [1] was greater than 100 µM, the TGI [2] was greater than 100 µM and the TGI [3] was greater than 100 µM. For the same molecule, the TGI [4] was greater than 100 µM, the TGI [5] was greater than 100 µM and the TGI [6] was greater than 100 µM. The TGI [7] was greater than 100 µM and the TGI [8] was greater than 100 µM.
Molecule `S=C(Nc1ccc2c(c1)oc1ccccc12)c1cccnc1` has a TGI [1] greater than 100 µM, a TGI [2] greater than 100 µM and a TGI [3] of 49.7 µM. The TGI [4] was greater than 100 µM, the TGI [5] was greater than 100 µM and the TGI [6] was 87.4 µM. The TGI [8] was greater than 100 µM.
Molecule `Nc1nc(Cl)cc(NCC2(CO)CCCC2)n1` has a TGI [1] greater than 100 µM, a TGI [2] greater than 100 µM and a TGI [3] greater than 100 µM. The TGI [4] was greater than 100 µM, the TGI [5] was greater than 100 µM and the TGI [6] was greater than 100 µM. It also gave a TGI [7] greater than 100 µM and a TGI [8] greater than 100 µM.
`COc1ccc2c(c1)CCN1CCc3ccccc3CC21` (stereo not given) gave a TGI [1] of 58.1 µM, a TGI [2] greater than 100 µM and a TGI [3] greater than 100 µM. The TGI [4] was greater than 100 µM, the TGI [5] was greater than 100 µM and the TGI [6] was greater than 100 µM. The TGI [7] was greater than 100 µM and the TGI [8] was greater than 100 µM.
For `Cc1cc(NCc2ccccc2)c2ccccc2[n+]1CCCCCCCCCC[n+]1c(C)cc(NCc2ccccc2)c2ccccc21`, the TGI [2] was 21.9 µM, the TGI [3] was 1.94 µM and the TGI [4] was 12.7 µM. The TGI [5] was 1.41 µM, the TGI [6] was 2.45 µM and the TGI [7] was 5.48 µM. For the same molecule, the TGI [8] was 0.567 µM.
With `CN(C)c1ccc(C2SCC(=O)N2c2ccc(Oc3ccc(Cl)cc3)c(Cl)c2)cc1` (stereo not given) the TGI [1] was 39.5 µM, the TGI [2] was 50.7 µM and the TGI [3] was 50.9 µM. The TGI [4] was 87.7 µM, the TGI [5] was 61 µM and the TGI [6] was 37.9 µM. For the same molecule, the TGI [7] was greater than 100 µM and the TGI [8] was 42.7 µM.
In the case of `COc1ccc(-c2nn(-c3ccc(NC(=O)Nc4cc(C(F)(F)F)cc(C(F)(F)F)c4)cc3)cc2-c2ccncc2)cc1Cl`, the GI50 [1] is reported as 3.31 µM, the TGI [1] is reported as greater than 100 µM and the GI50 [2] is reported as 2.91 µM. It also gave a TGI [2] greater than 100 µM, a GI50 [3] of 1.8 µM and a TGI [3] of 8.11 µM. The GI50 [4] was 2.64 µM, the TGI [4] was 14.7 µM and the GI50 [5] was 4.1 µM. It also gave a TGI [5] of 83.3 µM, a GI50 [6] of 3.71 µM and a TGI [6] of 85.8 µM. It also gave a GI50 [7] of 2.51 µM, a TGI [7] greater than 100 µM and a GI50 [8] of 2.02 µM. For the same molecule, the TGI [8] was 5.02 µM.
`CC1=NNC(=O)C1C(CC(=O)c1c[nH]c2ccccc12)C(=O)O` (stereo not given) was tested, and the TGI [1] was greater than 100 µM, the TGI [2] was greater than 100 µM and the TGI [3] was greater than 100 µM. The TGI [4] was greater than 100 µM, the TGI [5] was greater than 100 µM and the TGI [6] was greater than 100 µM. For the same molecule, the TGI [7] was greater than 100 µM and the TGI [8] was greater than 100 µM.
